The source of these data is patent US20260374773A1, “MULTI-CYCLIC IRAK AND FLT3 INHIBITING COMPOUNDS AND USES THEREOF” (CHILDREN'S HOSPITAL MEDICAL CENTER, priority 2022, published 2026).

One experiment concerns the target T1, FLT3 N841I (Homo sapiens, UniProt P36888, N841I).
T1 sequence (P36888 27-993 N841I): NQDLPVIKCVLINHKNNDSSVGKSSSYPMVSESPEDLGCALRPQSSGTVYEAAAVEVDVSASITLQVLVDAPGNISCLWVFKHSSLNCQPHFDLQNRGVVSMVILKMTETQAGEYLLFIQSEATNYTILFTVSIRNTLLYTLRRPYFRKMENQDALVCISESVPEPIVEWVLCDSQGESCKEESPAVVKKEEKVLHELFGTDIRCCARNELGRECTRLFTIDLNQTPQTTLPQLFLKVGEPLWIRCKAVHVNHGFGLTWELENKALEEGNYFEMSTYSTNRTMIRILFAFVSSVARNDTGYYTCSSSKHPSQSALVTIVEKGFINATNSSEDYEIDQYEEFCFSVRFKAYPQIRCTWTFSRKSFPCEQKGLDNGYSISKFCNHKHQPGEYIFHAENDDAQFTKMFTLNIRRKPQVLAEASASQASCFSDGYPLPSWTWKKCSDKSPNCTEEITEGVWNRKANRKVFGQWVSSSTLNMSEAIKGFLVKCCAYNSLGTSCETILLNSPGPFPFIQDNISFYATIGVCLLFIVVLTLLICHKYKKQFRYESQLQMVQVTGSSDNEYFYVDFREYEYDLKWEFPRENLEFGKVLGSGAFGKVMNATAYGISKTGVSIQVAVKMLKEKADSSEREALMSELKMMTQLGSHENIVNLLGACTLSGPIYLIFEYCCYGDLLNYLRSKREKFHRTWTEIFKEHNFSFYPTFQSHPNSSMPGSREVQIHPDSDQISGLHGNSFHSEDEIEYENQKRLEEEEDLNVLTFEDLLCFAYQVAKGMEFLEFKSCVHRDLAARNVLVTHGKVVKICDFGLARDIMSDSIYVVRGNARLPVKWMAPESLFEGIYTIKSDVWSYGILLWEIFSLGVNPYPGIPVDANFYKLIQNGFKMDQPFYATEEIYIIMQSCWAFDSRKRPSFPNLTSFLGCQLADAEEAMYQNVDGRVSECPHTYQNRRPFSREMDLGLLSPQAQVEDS
The experiment can be described thus: DiscoverX KINOMEscan active site-directed competition binding, FLT3 N841I. Conditions: Table 13; no ATP.
From the text: (§1) Kinase binding data were obtained for various exemplary compounds prepared according to Examples 1-8 using the DiscoverX KINOMEscan® active site-directed competition binding site-directed assay protocol described below. […] As a result, the data report thermodynamic interaction affinities (Kd values), rather than IC50 values that are dependent on ATP concentrations. The assay uses a DNA-tagged version of the protein kinase, and an immobilized ligand bound to a solid support. Compounds that directly or indirectly prevent kinase binding to the immobilized ligand reduce the amount of kinase captured on the solid support, which is detected using an ultra-sensitive qPCR method. Affinity constants reported from the assay have been reported to be independent of the immobilized ligand used that is coupled to the solid support (See supplemental information in Fabian, M. A. et. al., (2005) Nat. Biotechnol. 23, 329-336; Wodicka, L. M. et. al., (2010) Chem. Biol. 17, 1241-1249.)
Kinase-tagged T7 phage strains were prepared in an E. coli host derived from the BL21 strain. E. coli were grown to log-phase and infected with T7 phage and incubated with shaking at 32 °C until lysis. The lysates were centrifuged and filtered to remove cell debris. The remaining kinases were produced in HEK-293 cells and subsequently tagged with DNA for qPCR detection. Streptavidin-coated magnetic beads were treated with biotinylated small molecule ligands for 30 minutes at room temperature to generate affinity resins for kinase assays. The liganded beads were blocked with excess biotin and washed with blocking buffer (SeaBlock (Pierce), 1% BSA, 0.05% Tween 20, 1 mM DTT) to remove unbound ligand and to reduce non-specific binding. […] Test compounds were prepared as 111x stocks in 100% DMSO. Kds were determined using an 11-point 3-fold compound dilution series with three DMSO control points. All compounds for Kd measurements are distributed by acoustic transfer (non-contact dispensing) in 100% DMSO. The compounds were then diluted directly into the assays such that the final concentration of DMSO was 0.9%. All reactions were performed in polypropylene 384-well plates. Each was a final volume of 0.02 mL. The assay plates were incubated at room temperature with shaking for 1 hour and the affinity beads were washed with wash buffer (1×PBS, 0.05% Tween 20). The beads were then re-suspended in elution buffer (1×PBS, 0.05% Tween 20, 0.5 μM nonbiotinylated affinity ligand) and incubated at room temperature with shaking for 30 minutes. The kinase concentration in the eluates was measured by qPCR. Binding constants (Kds) were calculated with a standard dose-response curve using the Hill equation. The Hill Slope was set to −1. Curves were fitted using a non-linear least square fit with the Levenberg-Marquardt algorithm.
as §1, with “9-12” for “1-8”
Kinase-tagged T7 phage strains were prepared in an E. coli host derived from the BL21 strain. […]
The term Kd denotes a measure of binding affinity in units of concentration. The compound `COc1cn2ncc(-c3nc(N[C@H]4CNCC[C@@H]4F)c(C#N)cc3F)c2nc1C(C)(C)O` [Compound 10, 5-fluoro-2-(((3S,4S)-4-fluoropiperidin-3-yl)amino)-6-(5-(2-hydroxypropan-2-yl)-6-methoxypyrazolo[1,5-a]pyrimidin-3-yl)nicotinonitrile] gave a Kd of 0.48 nM. Same read-out and setting: the value for `COc1cn2ncc(-c3nc(N[C@H]4CNCC[C@@H]4F)c(C#N)cc3F)c2nc1C1CC1` [Compound 7, 6-(5-cyclopropyl-6-methoxypyrazolo[1,5-a]pyrimidin-3-yl)-5-fluoro-2-(((3S,4S)-4-fluoropiperidin-3-yl)amino)nicotinonitrile] was below 0.17 nM. Still for that read-out and setting: the value for `COc1cn2ncc(-c3nc(N[C@H]4CNCC[C@@H]4F)c(F)cc3F)c2nc1C(C)(C)O` [Compound 13, 2-(3-(3,5-difluoro-6-(((3S,4S)-4-fluoropiperidin-3-yl)amino)pyridin-2-yl)-6-methoxypyrazolo[1,5-a]pyrimidin-5-yl)propan-2-ol] was 0.79 nM.

Still in this experiment, the particulars now being: Table 19; no ATP.
In turn, `COc1cn2ncc(-c3nc(N[C@@H]4CCCNC4)ncc3F)c2nc1C1CC1` [Compound 14a, (R)-4-(5-cyclopropyl-6-methoxypyrazolo[1,5-a]pyrimidin-3-yl)-5-fluoro-N-(piperidin-3-yl)pyrimidin-2-amine] had a Kd below 0.17 nM. Same read-out and setting: the figure for `COc1cn2ncc(-c3nc(N[C@H]4CNCC[C@@H]4F)ncc3F)c2nc1C(C)(C)O` [Compound 6a, 2-(3-(5-fluoro-2-(((3S,4S)-4-fluoropiperidin-3-yl)amino)pyrimidin-4-yl)-6-methoxypyrazolo[1,5-a]pyrimidin-5-yl)propan-2-ol] is 0.7 nM. With `COc1cn2ncc(-c3nc(N[C@H]4CNCC[C@@H]4F)ncc3F)c2nc1C1CC1` [Compound 15a, 4-(5-cyclopropyl-6-methoxypyrazolo[1,5-a]pyrimidin-3-yl)-5-fluoro-N-((3S,4S)-4-fluoropiperidin-3-yl)pyrimidin-2-amine], the Kd was below 0.17 nM.

In the case of `COc1cn2ncc(-c3cncc(N[C@H]4CNCC[C@@H]4F)n3)c2nc1C1CC1` [Compound 12a, 6-(5-cyclopropyl-6-methoxypyrazolo[1,5-a]pyrimidin-3-yl)-N-((3S,4S)-4-fluoropiperidin-3-yl)pyrazin-2-amine], the Kd came to 0.27 nM. `COc1cn2ncc(-c3ccnc(N[C@H]4CNCC[C@@H]4F)n3)c2nc1C1CC1` [Compound 7a, 4-(5-cyclopropyl-6-methoxypyrazolo[1,5-a]pyrimidin-3-yl)-N-((3S,4S)-4-fluoropiperidin-3-yl)pyrimidin-2-amine] showed a Kd of 0.62 nM.
